In patent US20230382984A1, “TRABD PROTEIN, AND MONOCLONAL ANTIBODY THEREOF, AND ISOLATION, AMPLIFICATION AND USE THEREOF” (priority 2022, published 2023):
Blank lines part the entries; values can stand above or below the molecule they belong to.

What was measured:
TRABD protease = details: cited from earlier work; for function of TRABD protein: divalent metal ion complexing agent; for TRABD protease activity: early study, metal ions
TRABD2A protein [1] = target: T1, TRABD2A protein (Homo sapiens, UniProt Q86V40); details: different view; metal ions; cited from earlier work
T1 sequence (Q86V40 22-480): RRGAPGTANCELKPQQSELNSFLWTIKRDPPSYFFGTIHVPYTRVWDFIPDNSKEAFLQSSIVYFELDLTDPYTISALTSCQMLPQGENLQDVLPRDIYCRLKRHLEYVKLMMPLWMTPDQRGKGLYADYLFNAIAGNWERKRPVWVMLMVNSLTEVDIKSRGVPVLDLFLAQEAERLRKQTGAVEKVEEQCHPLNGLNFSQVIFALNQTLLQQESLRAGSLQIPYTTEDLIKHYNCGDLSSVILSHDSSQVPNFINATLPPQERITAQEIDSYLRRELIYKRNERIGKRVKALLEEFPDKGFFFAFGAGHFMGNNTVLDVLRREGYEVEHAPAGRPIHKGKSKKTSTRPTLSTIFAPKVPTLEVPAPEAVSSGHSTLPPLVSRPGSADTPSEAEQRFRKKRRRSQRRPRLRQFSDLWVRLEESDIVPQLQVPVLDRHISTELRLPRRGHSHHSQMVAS

[2] = target: T2, TRABD2A metalloprotease on CD8^+ T cells (Homo sapiens, UniProt Q86V40); test: Killing activity of CD8+ T cells on target cells after metal cofactor intervention of TRABD2A; assay type: cell-based; details: metal cations at different concentrations acting on CD8+ T cells; target cells CEM.T2 and MGC; FIG. 4A
T2 construct: action of metal ions Mn^2+, Co^2+ and Ni^2+ on TRABD2A metalloprotease on CD8^+ T cells; endogenous in cells
T2 sequence (Q86V40 22-480): T1 sequence (Q86V40 22-480)
From the text: Since TRABD2A is a metalloprotease and its activity is affected by metal ions, and the metal ion Mn^2+ having an accelerating effect on TRABD2A metalloprotease activity and metal ions Co^2+ and Ni^2+ having an inhibiting effect were examined. The effect of the TRABD2A protein on CD8^+ T cells was observed by the action of metal ions Mn^2+, Co^2+ and Ni^2+ on TRABD2A metalloprotease on CD8^+ T cells.

[3] = test system: CD8^+ T cells and target cells; test: CCK8 and flow cytometry detection of toxic effect of metal cations; details: concentration of 20 μM
From the text: FIG. 4A show the effect on the target cell killing ability of CD8^+ T cells after metal cofactor intervention of TRABD2A; • A: detection of the killing activity of the CD8^+ T cells on target cells CEM.T2 when metal cations Co^2+, Ni^2+ and Mn^2+ at different concentrations act on CD8^+ T cells; • B: detection of the killing activity of the CD8^+ T cells on target cells MGC when metal cations Co^2+, Ni^2+ and Mn^2+ at different concentrations act on CD8^+ T cells; • C: CCK8 and flow cytometry detection of the toxic effect of metal cations Co^2+, Ni^2+ and Mn^2+ at different concentrations on target cells.

[4] = target: T3, TRABD2B metalloprotease on CD8^+ T cells (Homo sapiens, UniProt A6NFA1); test: Killing activity of CD8+ T cells on target cells after metal cofactor intervention with TRABD2B; assay type: cell-based; details: Ni2+ at different concentrations; target cells CEM.T2; FIG. 4B
T3 construct: action of metal ion Ni^2+ upon TRABD2B metalloprotease on CD8^+ T cells; endogenous in cells
T3 sequence (A6NFA1 20-486): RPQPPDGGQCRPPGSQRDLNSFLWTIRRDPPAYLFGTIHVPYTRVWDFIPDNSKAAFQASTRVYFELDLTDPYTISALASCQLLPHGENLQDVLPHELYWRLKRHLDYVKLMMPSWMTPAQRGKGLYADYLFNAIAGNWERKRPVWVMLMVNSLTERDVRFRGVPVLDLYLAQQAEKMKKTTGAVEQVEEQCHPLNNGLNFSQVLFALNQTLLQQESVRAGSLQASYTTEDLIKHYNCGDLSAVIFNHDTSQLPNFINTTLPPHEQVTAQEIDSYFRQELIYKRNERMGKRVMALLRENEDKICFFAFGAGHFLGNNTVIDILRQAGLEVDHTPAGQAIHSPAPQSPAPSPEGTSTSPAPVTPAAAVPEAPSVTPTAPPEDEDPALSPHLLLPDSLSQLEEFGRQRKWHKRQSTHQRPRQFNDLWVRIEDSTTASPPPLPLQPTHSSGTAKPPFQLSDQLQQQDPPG
From the text: Since TRABD2B is a metalloprotease whose activity is affected by metal ions, metal ion Mn^2+ that promotes the TRABD2B metalloprotease activity was examined. The effect of the TRABD2B protein on CD8^+ T cells was observed by the action of metal ion Ni^2+ upon TRABD2B metalloprotease on CD8^+ T cells.

target cells = test: CCK8 and flow cytometry detection of toxic effect of Ni2+ on target cells; assay type: cell-based; details: concentration 20 μM
[5] = target: TRABD2A protein (antigen) (UniProt Q86V40); test: ELISA; negative control; fit value beyond top concentration
TRABD2A protein [6] = target: T1, TRABD2A protein; test: Binding of synthesized TRABD2A antibodies to antigen; details: detection with antigen; FIG. 6A
From the text: Three antibodies anti-TRABD2A-1 (amino acid sequences of heavy and light chains are set forth in SEQ ID NOs: 7 and 8, respectively), anti-TRABD2A-2 (amino acid sequences of heavy and light chains are set forth in SEQ ID NOs: 13 and 14, respectively) and negative control (amino acid sequences of heavy and light chains are set forth in SEQ ID NOs: 19 and 20, respectively) synthesized in Example 5-1 were used. […] After concentration of the antibodies, the protein concentrations were measure by A280, and the concentrations of anti-TRABD2A-1, anti-TRABD2A-2 and negative control were 0.92 mg/mL, 1.6 mg/mL and 2.98 mg/mL, respectively. The proteins were snap frozen in liquid nitrogen and stored at −80° C. for later use.

[7] = target: T4, TRABD2A protein on CD8^+ T cells (Homo sapiens, UniProt Q86V40); test: Killing of target cells by CD8+ T cells after intervention with TRABD2A antibody; assay type: cell-based; details: antibody removed or unremoved after incubation; FIG. 7A
T4 construct: action of metal ions Mn^2+, Co^2+ and Ni^2+ on TRABD2A metalloprotease on CD8^+ T cells; endogenous in cells
T4 sequence (Q86V40 22-480): T1 sequence (Q86V40 22-480)
Procedure: Two modes were adopted for intervening with TRABD2A protein on CD8^+ T cells, and the difference of the two modes was that the CD8^+ T cells, after incubation with the antibody, kill the target cells with residual blocking antibody removed or unremoved.

[8] = target: T5, TRABD2A protein (antigen) (UniProt Q86V40 22-480); test: ELISA
T5 chain: T1 sequence (Q86V40 22-480)

TRABD2A protein [9] = target: T1, TRABD2A protein; test: Binding of anti-TRABD2A/2B bispecific antibody to antigen TRABD2A protein; details: detection with antigen; FIG. 6C
Procedure: (§1) The bispecific antibody (amino acid sequences of heavy and light chains are set forth in SEQ IN NOs: 29 and 30, respectively) and negative control (amino acid sequences of heavy and light chains are set forth in SEQ IN NOs: 33 and 24, respectively) antibody synthesized in Example 5-3 were used. […] After the antibodies were concentrated, the protein concentration of anti-TRABD2A/2B was 1.23 mg/mL and that of the negative control was 1.02 mg/mL, as measured by A280. The proteins were snap frozen in liquid nitrogen and stored at −80° C. for later use.

TRABD2B protein = target: T6, TRABD2B protein (Homo sapiens, UniProt A6NFA1); test: Binding of anti-TRABD2A/2B bispecific antibody to antigen TRABD2B protein; details: detection with antigen; FIG. 6C
T6 sequence (A6NFA1 20-486): T3 sequence (A6NFA1 20-486)
Procedure: as §1

[10] = test system: TRABD2A and TRABD2B proteins; test: Killing of target cells by CD8+ T cells under intervention with bispecific anti-TRABD2A/2B antibody; assay type: cell-based, human; details: FIG. 7C
From the text: The effect of the bispecific antibody blocking both TRABD2A and TRABD2B proteins on target cell killing ability of CD8^+ T cells were examined.

Molecule: c1cnc2c(c1)ccc1cccnc12 [1,10-phenanthroline]
- function of TRABD protein (TRABD protease): inhibited

Molecule: [Ca+2] [Ca^2+]
- activity of the TRABD2A protein (TRABD2A protein [1]): independent

Molecule: [Co+2] [Co^2+]
- tumor killing ability of CD8^+ T cells [2]: enhanced
- toxic effect on CD8^+ T cells and target cells [3]: little toxic effect
- TRABD protease activity (TRABD protease): increase
- activity of the TRABD2A protein (TRABD2A protein [1]): inhibited

Molecule: [Cu+2] [Cu^2+]
- TRABD protease activity (TRABD protease): opposite effect

Molecule: O=C(O)CN(CCN(CC(=O)O)CC(=O)O)CC(=O)O [EDTA]
- function of TRABD protein (TRABD protease): inhibited

Molecule: [Fe+3] [Fe^3+]
- activity of the TRABD2A protein (TRABD2A protein [1]): independent

Molecule: [Mg+2] [Mg^2+]
- activity of the TRABD2A protein (TRABD2A protein [1]): independent

Molecule: [Mn+2] [Mn^2+]
- tumor killing ability of CD8^+ T cells [2]: not enhanced
- TRABD protease activity (TRABD protease): increase

Molecule: [Ni+2] [Ni^2+]
- tumor killing ability of CD8^+ T cells [2]: enhanced
- toxic effect on CD8^+ T cells and target cells [3]: little toxic effect
- tumor killing ability of CD8^+ T cells [4]: enhanced
- toxic effect on cells (target cells): little toxic effect
- TRABD protease activity (TRABD protease): opposite effect
- activity of the TRABD2A protein (TRABD2A protein [1]): inhibited

- EC50 [5]: 14.1 µg/mL
Molecule: negative control antibody of Example 6-1

- binding to antigen (TRABD2A protein [6]): high binding efficiency
- EC50 [8]: 0.306 µg/mL
B1: anti-TRABD2A-1 (antibody)
heavy: DASTLQRGVPSRFGGSGQMTQSPSSASTLQRGVPSRFGGSGSQSINRASTLQRGVPSRFGGSGGKAPKLVIYAASSLQSGVPSRFSGSGSGTDFTLTISSLQ
light: ASTLQRGVISWVRASTLQRGVPSRFGGSGPIFGTANYAQKFQGRVTITADESTSTAYMELSSLRSEDTAVYYASTLQRGVPSRFGGSGYYWGQGTPVTVSS
- effect on target cell killing ability of CD8^+ T cells [7]: enhanced effect

- binding to TRABD2A (TRABD2A protein [9]): capable of binding
- binding to TRABD2B (TRABD2B protein): capable of binding
B2: anti-TRABD2A/2B bispecific antibody: bispecific antibody recognizing both TRABD2A and TRABD2B; heavy and light chains SEQ ID NOs: 29 and 30 (antibody)
heavy: YQSQSINRYLNWYQQKPGKSNYLNWAPKLVIYAASSLQYCQQYNFYPLTFGYLNWYQSSGTYLNWYQQRPGKAPSSGTYQRPGKAPGGTKVSNYLNWYQSN
light: YAQKFQGRVTITVKVSCKASGGTFSSYAISWVRQAPGQGLEWMGQVQLVQSGAEVKKPGSSGIIPIFGTANADESTSTAYMELSSLRSEDTAVYYCARTRGYS
- effect on the killing of target cells by CD8^+ T cells [10]: enhancing effect

- binding to antigen (TRABD2A protein [6]): high binding efficiency
- EC50 [8]: 0.128 µg/mL
B3: anti-TRABD2A-2 (antibody)
heavy: APKLLIYAASSLRSGVPSRFSGSTCRASQSINRYLNWYQAPKLLIYAASSLRSGVPSRFSGSYAASSLQSGVPSRFSGSGSGTDFTLTISSLQPEDFATYYCQQGGTKV
light: YYWGQGTPVTVSKKPGSSVKVSAPKLLIYAASSLRSGVPSRFSGSGTFSSYAISWVRQAPGQGLEWMGGIIPIFGTANYAQKFQGRVTITADESTSTAYMELSSLRSEDTA
- effect on target cell killing ability of CD8^+ T cells [7]: enhanced effect
